Experimental findings from ChEMBL document CHEMBL1152320, “Diterpene formamides from the tropical marine sponge Cymbastela hooperi and their antimalarial activity in vitro” (J Nat Prod, 2009) are described below.

In brackets after ≈: the same amount, converted by molar mass. A value given as a limit tells only on which side of the number the result lay.

The test system of assay [1] is Plasmodium falciparum. The assay can be described thus: Antiplasmodial activity after 48 hrs against Plasmodium falciparum FCR3F86 by [3H]hypoxanthine uptake. Format: functional, organism-based.
The subject of assay [2] is Plasmodium falciparum. The assay can be described thus: Antiplasmodial activity after 48 hrs against Plasmodium falciparum D6 by [3H]hypoxanthine uptake. It counts as functional, organism-based.
The next assay relates to KB. The assay can be described thus: Cytotoxicity against human KB cells assessed as [3H]hypoxanthine incorporation after 48 hrs. It counts as functional, cell-based.
Assay [3] concerns Plasmodium falciparum. The assay can be described thus: Antiplasmodial activity after 48 hrs against Plasmodium falciparum W2 by [3H]hypoxanthine uptake. Format: functional, organism-based.

Consider `C[C@@H]1C[C@@H]2C[C@H](C)[C@H]3CC[C@](C)(NC=O)[C@H]4CC[C@@H]([C@@H]2[C@H]34)[C@]1(C)NC=O`, for which the IC50 with Plasmodium falciparum [1] was 14.8 µg/mL (≈ 41 µM).

With `[C-]#[N+][C@]1(C)[C@H](C)C[C@@H]2C[C@H](C)[C@H]3CC[C@](C)(NC=O)[C@H]4CC[C@H]1[C@@H]2[C@H]34`, the IC50 in the assay with Plasmodium falciparum [1] is 0.2 µg/mL (≈ 0.584 µM); in the assay with Plasmodium falciparum [2], 0.8 µg/mL (≈ 2.34 µM); with KB, above 5 µg/mL; in the assay with Plasmodium falciparum [3], 0.6 µg/mL (≈ 1.75 µM).

Consider `C=C(C)C[C@@H]1C[C@H](C)[C@H]2CC[C@](C)(NC=O)[C@H]3CCC(=C)[C@@H]1[C@H]23` (relative stereo), for which the IC50 with Plasmodium falciparum [1] was above 90 µg/mL.

In the assay with Plasmodium falciparum [1], `C[C@H]1C[C@H]2CC(C)(C)C=C3CC[C@H]4[C@@H]([C@@H]1CC[C@]4(C)NC=O)[C@@H]32` (relative stereo) showed an IC50 above 100 µg/mL.

In the assay on Plasmodium falciparum [1], `C=C1CC[C@H]2[C@H]3[C@H](CC[C@]2(C)NC=O)[C@@H](C)C[C@H](C=C(C)C)[C@H]13` (relative stereo) returned an IC50 of 63 µg/mL (≈ 200 µM).

As to `O=C1C(O)=C([C@H]2CC[C@H](c3ccc(Cl)cc3)CC2)C(=O)c2ccccc21` [ATOVAQUONE], the IC50 in the assay with Plasmodium falciparum [1] is 0.0004 µg/mL (≈ 0.00109 µM); in the assay with Plasmodium falciparum [2], 0.0002 µg/mL (≈ 0.000545 µM); with KB it was above 5 µg/mL; with Plasmodium falciparum [3], 0.0008 µg/mL (≈ 0.00218 µM).

One may read the IC50 as the concentration at which inhibition is half-maximal.
